{"source": "patent US20110027771A1", "about": "“METHODS AND COMPOSITIONS FOR CELL STABILIZATION” (Artemis Health, Inc., priority 2009, published 2011)", "system": "fetal cells", "assay": "Fetal cell number in blood drawn into sodium heparin or EDTA tubes, digital PCR", "assay_type": "cell-based", "conditions": "composition containing heparin compared to composition containing EDTA; processed within 2 hrs after blood draw; FIG. 1", "protocol": "The number of fetal cells in solutions containing EDTA or heparin were compared (FIG. 1). Pre-procedural blood samples (10 ml per condition) were drawn into either sodium heparin tubes or EDTA tubes. Samples were processed within 2 hrs after blood draw. Briefly, whole blood samples were centrifuged to separate blood cells and plasma. Fetal gender was determined by digital PCR using plasma. Blood cell pellets were washed 5 times in PBS to remove cell-free DNA. DNA was then extracted from washed blood cells with a Qiagen column. The fetal cell number in samples with a male fetus was enumerated by digital PCR."}
{"substance": "heparin", "values": [{"measurement": "fetal cell stability", "result": "higher stability"}]}
